# Experimental data published in US9630943B2, “Tetrahydronaphthyl(thio) carboxamides” (BAYER CROPSCIENCE AG, priority 2012, dated 2017).
# Test system: not listed separately
# Assay: Measurement of logP values by HPLC on reversed phase columns (EEC directive 79/831 Annex V.A8)
# Assay type: physicochemical
# Conditions: method [a]
row,Structure (SMILES),LogP^[a]
1,Cn1cc(C(=O)Nc2cccc3c2CCCC3)c(C(F)F)n1 [Example 27],2.68^[a]
2,Cn1cc(C(=O)Nc2cccc3c2CCCC3)c(C(F)(F)F)n1 [Example 28],2.92^[a]
3,Cn1cc(C(=O)Nc2cccc3c2CCC(C)(C)C3=O)c(C(F)F)n1 [Example 29],2.40^[a]
4,Cc1nn(C)c(F)c1C(=O)Nc1cccc2c1CCC(C)(C)C2=O [Example 30],2.28^[a]
5,Cc1nn(C)c(C)c1C(=O)Nc1cccc2c1CCC(C)(C)C2=O [Example 31],2.04^[a]
6,CCc1nc(C)sc1C(=O)Nc1cccc2c1CCC(C)(C)C2=O [Example 32],2.71^[a]
7,Cc1nc(C(F)F)c(C(=O)Nc2cccc3c2CCC(C)(C)C3=O)s1 [Example 33],2.73^[a]
8,CC1c2c(cccc2NC(=O)c2cn(C)nc2C(F)F)CCC1(C)C (stereo not shown) [Example 34],3.51^[a]
9,CON=C1CCCc2c(NC(=O)c3c(C)nn(C)c3C)cccc21 [Example 37],2.17^[a]
10,CON=C1CCCc2c(NC(=O)c3cn(C)nc3C(F)F)cccc21 [Example 38],2.56^[a]
11,CON=C1CCCc2c(NC(=O)c3c(C)nn(C)c3F)cccc21 [Example 39],2.47^[a]
12,CCON=C1CCCc2c(NC(=O)c3c(C)nn(C)c3F)cccc21 [Example 40],2.86^[a]
13,CCON=C1CCCc2c(NC(=O)c3c(C)nn(C)c3C)cccc21 [Example 41],2.58^[a]
14,CCON=C1CCCc2c(NC(=O)c3cn(C)nc3C(F)F)cccc21 [Example 42],2.96^[a]
15,Cn1cc(C(=O)Nc2cccc3c2CCC(C)(C)C3)c(C(F)F)n1 [Example 43],3.35^[a]
16,Cc1nn(C)c(C)c1C(=O)Nc1cccc2c1CCC(C)(C)C2 [Example 45],2.94^[a]
17,Cc1nc(C(F)F)c(C(=O)Nc2cccc3c2CCC(C)(C)C3)s1 [Example 46],3.81^[a]
18,CCc1nc(C)sc1C(=O)Nc1cccc2c1CCCC2=NOC [Example 47],3.02^[a]
19,CON=C1CCCc2c(NC(=O)c3sc(C)nc3C(F)F)cccc21 [Example 48],2.92^[a]

row,Structure (SMILES),LogP^[a]
1,CON=C1CCCc2c(NC(=O)c3ccsc3Br)cccc21 [Example 49],3.37^[a]
2,CC1(C)CCCc2c(NC(=O)c3nccnc3I)ccc(F)c21 [Example 50],3.92^[a]
3,CC1(C)CCCc2c(NC(=O)c3ccoc3C(F)F)ccc(F)c21 [Example 51],4.06^[a]
4,CC1(C)CCCc2c(NC(=O)c3nccnc3C(F)(F)F)ccc(F)c21 [Example 52],3.96^[a]
5,CON=C1CCCc2c(NC(=O)c3ccoc3C(F)F)cccc21 [Example 53],3.25^[a]
6,CON=C1CCCc2c(NC(=O)c3nccnc3I)cccc21 [Example 54],2.94^[a]
7,CON=C1CCCc2c(NC(=O)c3nccnc3C(F)(F)F)cccc21 [Example 55],3.08^[a]
8,CON=C1CCCc2c(NC(=O)c3ccsc3I)cccc21 [Example 56],3.37^[a]
9,CC1(C)CCCc2c(NC(=O)C3=C(C(F)(F)F)OCCS3)ccc(F)c21 [Example 57],4.01^[a]
10,Cc1nc(C(F)F)c(C(=O)Nc2ccc(F)c3c2CCCC3(C)C)s1 [Example 58],3.79^[a]
11,CCc1nc(C)sc1C(=O)Nc1ccc(F)c2c1CCCC2(C)C [Example 59],3.85^[a]
12,Cn1cc(C(=O)Nc2cccc3c2CCCC3(C)C)c(C(F)F)n1 [Example 60],3.39^[a]
13,Cc1nn(C)c(F)c1C(=O)Nc1cccc2c1CCCC2(C)C [Example 61],3.35^[a]
14,Cc1oc(C)c(C(=O)Nc2ccc(F)c3c2CCCC3(C)C)c1C [Example 62],4.51^[a]
15,CC1(C)CCCc2c(NC(=O)c3ccsc3I)ccc(F)c21 [Example 63],4.29^[a]
16,CC1(C)CCc2c(cccc2NC(=O)c2ccoc2C(F)F)C1 [Example 64],4.06^[a]
17,Cc1oc(C)c(C(=O)Nc2cccc3c2CCC(C)(C)C3)c1C [Example 65],4.59^[a]
18,CC1(C)CCc2c(cccc2NC(=O)c2ccsc2Br)C1 [Example 66],4.41^[a]
19,CC1(C)CCc2c(cccc2NC(=O)c2nccnc2I)C1 [Example 67],4.01^[a]

# The remaining lines, values ahead:
row,LogP^[a],Structure (SMILES)
1,3.99^[a],CC1(C)CCc2c(cccc2NC(=O)c2nccnc2C(F)(F)F)C1 [Example 68]
2,3.99^[a],CC1(C)CCc2c(cccc2NC(=O)C2=C(C(F)(F)F)OCCS2)C1 [Example 69]
3,3.44^[a],CCON=C1CCCc2c(NC(=O)c3nccnc3I)cccc21 [Example 70]
4,3.55^[a],CON=C1CCCc2c(NC(=O)c3c(C)oc(C)c3C)cccc21 [Example 71]
5,3.55^[a],CCON=C1CCCc2c(NC(=O)c3nccnc3C(F)(F)F)cccc21 [Example 72]
6,3.57^[a],CCON=C1CCCc2c(NC(=O)c3c(C(F)(F)F)nn(C)c3F)cccc21 [Example 73]
7,3.63^[a],CCON=C1CCCc2c(NC(=O)C3=C(C(F)(F)F)OCCS3)cccc21 [Example 74]
8,3.11^[a],CON=C1CCCc2c(NC(=O)c3c(C(F)(F)F)nn(C)c3F)cccc21 [Example 75]
9,3.21^[a],CON=C1CCCc2c(NC(=O)C3=C(C(F)(F)F)OCCS3)cccc21 [Example 76]
10,3.87^[a],CCON=C1CCCc2c(NC(=O)c3ccsc3Br)cccc21 [Example 77]
11,4.01^[a],CCON=C1CCCc2c(NC(=O)c3c(C)oc(C)c3C)cccc21 [Example 78]
12,3.68^[a],CCON=C1CCCc2c(NC(=O)c3ccoc3C(F)F)cccc21 [Example 79]
13,3.37^[a],CCON=C1CCCc2c(NC(=O)c3sc(C)nc3C(F)F)cccc21 [Example 80]
14,3.37^[a],CCON=C1CCCc2c(NC(=O)c3sc(C)nc3CC)cccc21 [Example 81]
15,3.87^[a],CCc1nc(C)sc1C(=O)Nc1cccc2c1CCC(C)(C)C2 [Example 82]
16,3.70^[a],CON=C1CCCc2c(NC(=S)c3ccoc3C(F)F)cccc21 [Example 83]
17,3.83^[a],CCON=C1CCCc2c(NC(=O)c3ccsc3I)cccc21 [Example 84]
18,3.87^[a],Cn1cc(C(=S)Nc2ccc(F)c3c2CCCC3(C)C)c(C(F)F)n1 [Example 85]
19,3.99^[a],Cn1nc(C(F)(F)F)c(C(=O)Nc2cccc3c2CCC(C)(C)C3)c1F [Example 86]
20,4.34^[a],CC1(C)CCc2c(cccc2NC(=O)c2ccsc2I)C1 [Example 87]
21,3.39^[a],CON=C1CCCc2c(NC(=S)c3nccnc3C(F)(F)F)cccc21 [Example 88]
22,4.11^[a],CCON=C1CCCc2c(NC(=S)c3ccoc3C(F)F)cccc21 [Example 89]
23,2.98^[a],Cc1nn(C)c(C)c1C(=O)Nc1ccc(F)c2c1CCCC2(C)C [Example 90]
24,3.83^[a],CCON=C1CCCc2c(NC(=S)c3nccnc3C(F)(F)F)cccc21 [Example 91]
25,2.99^[a],Cn1cc(C(=O)Nc2cccc3c2C(C)(C)CCC3)c(C(F)F)n1 [Example 92]
26,4.03^[a],CCC1(CC)CCCc2c(NC(=O)c3cn(C)nc3C(F)F)cccc21 [Example 93]

# Same assay, conditions: method [a], HPLC on reversed phase columns
row,Structure (SMILES),LogP[a]
1,CCCC1CCc2c(NC(=O)c3cn(C)nc3C(F)F)cccc2C1C (mixture of isomers) [Example 95],4.18^[a]
2,CC1(C)CCc2c(cccc2NC(=S)c2ccoc2C(F)F)C1 [Example 96],4.39^[a]
3,CC(C)C1CCCc2c(NC(=O)c3cn(C)nc3C(F)(F)F)cccc21 (stereo not shown) [Example 99],3.96^[a]

# Same assay, conditions: reversed phase HPLC columns; method [a]: LC-MS at pH 2.7, 0,1% formic acid in water / acetonitrile, gradient 10% to 95% acetonitrile; amines of formula (III-a); read-out: LogP^[a]
row,Structure (SMILES),chromatographic logP
1,"CC1(C)CCc2c(N)cccc2C1 [III-a-3, 6,6-dimethyl-5,6,7,8-tetrahydronaphthalen-1-amine]",1.88

# Test system: Alternaria brassicae
# Assay: In vivo preventive test on Alternaria brassicae (leaf spot on radish)
# Conditions: radish plants, preventive spray, dose 100 ppm, grading 6 days after contamination
# Method: Radish plants (“Pernod Clair” variety), sown in starter cups on a 50/50 peat soil-pozzolana substrate and grown at 17° C., are treated at the cotyledon stage by spraying with the active ingredient prepared as described above. Plants, used as controls, are treated with the mixture of acetone/tween/DMSO/water not containing the active material. After 24 hours, the plants are contaminated by spraying the cotyledons with an aqueous suspension of Alternaria brassicae spores (50 000 spores per ml). The spores are collected from a 15-day-old culture. The contaminated radish plants are incubated at 20° C. and at 100% relative humidity. Grading (% of efficacy) is carried out 6 days after the contamination, in comparison with the control plants.
row,Structure (SMILES),biological efficacy
1,CC1(C)CCc2c(cccc2NC(=S)c2ccoc2C(F)F)C1 [Example 96],≥ 70%

# Test system: Botrytis cinerea
# Assay: In vivo preventive test on Botrytis cinerea (grey mould)
# Conditions: gherkin plants, preventive spray, dose 100 ppm, grading 4 to 5 days after contamination
# Method: Gherkin plants (“Vert petit de Paris” variety), sown in starter cups on a 50/50 peat soil-pozzolana substrate and grown at 24° C., are treated at the Z11 cotyledon stage by spraying with the active ingredient prepared as described above. Plants, used as controls, are treated with the mixture of acetone/tween/DMSO/water not containing the active material. After 24 hours, the plants are contaminated by spraying the cotyledons with an aqueous suspension of cryopreserved Botrytis cinerea spores (50 000 spores per ml). The spores are suspended in a nutrient solution composed of 10 g/L of PDB, 50 g/L of D-Fructose, 2 g/L of NH4NO3 and 1 g/L of KH2PO4. […] Grading (% of efficacy) is carried out 4 to 5 days after the contamination, in comparison with the control plants.
row,Structure (SMILES),biological efficacy
1,CCCC1CCc2c(NC(=O)c3cn(C)nc3C(F)F)cccc2C1C (mixture of isomers) [Example 95],≥ 80%
